Patent US4933359A, “4(5)-substituted imidazole derivatives as α2 -adrenergic receptor blockers” (Farmos-Yhtyma Oy, priority 1986, dated 1990)

How the values were obtained:
[1] = target: T1, α2-receptors (mouse vas deferens) (Mus musculus, UniProt Q01338); assay: α2-antagonism in vitro, isolated electrically stimulated mouse vas deferens (pA2 vs detomidine); format: cell-based; settings: antagonist given prior to agonist detomidine
T1 construct: isolated, electrically stimulated mouse vas deferens preparation; from tissue; host or cells: mouse vas deferens
T1 sequence (Q01338 1-465): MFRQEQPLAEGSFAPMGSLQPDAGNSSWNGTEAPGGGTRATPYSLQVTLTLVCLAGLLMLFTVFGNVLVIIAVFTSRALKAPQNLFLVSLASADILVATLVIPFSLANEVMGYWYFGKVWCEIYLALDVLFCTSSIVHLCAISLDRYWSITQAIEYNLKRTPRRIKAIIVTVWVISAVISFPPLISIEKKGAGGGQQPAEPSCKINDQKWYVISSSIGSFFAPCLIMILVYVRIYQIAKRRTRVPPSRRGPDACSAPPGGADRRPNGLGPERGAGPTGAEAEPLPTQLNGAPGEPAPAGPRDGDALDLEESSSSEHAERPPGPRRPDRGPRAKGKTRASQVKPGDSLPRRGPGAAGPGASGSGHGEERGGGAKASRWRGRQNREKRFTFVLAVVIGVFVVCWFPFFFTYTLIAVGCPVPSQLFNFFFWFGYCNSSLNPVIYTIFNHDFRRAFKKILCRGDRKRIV
Experimental: The α2 -antagonism of these compounds was determined in vitro using the isolated, electrically stimulated mouse vas deferens preparation (Marshall et al., Br. J. Pharmac. 62, 147, 151, 1978). In this model, an α2 -agonist (detomidine) blocks electrically stimulated muscular contractions and the effect of the α2 -antagonist is seen by administering it prior to the agonist and by determining its pA2 value.
Compound mouse vas deferens

[2] = target: T2, α2-receptors of the central nervous system (Rattus norvegicus, UniProt P22909); assay: central α2-blocking effect in vivo: reversal of detomidine-induced mydriasis in anaesthetized rat; settings: iv, standard dose of detomidine i.v., then increasing i.v. doses of antagonist, read-out: ED50, dose producing a 50 percent reversal of detomidine-induced mydriasis
T2 construct: from tissue; host or cells: living anaesthetized rat, central nervous system
T2 sequence (P22909 1-465): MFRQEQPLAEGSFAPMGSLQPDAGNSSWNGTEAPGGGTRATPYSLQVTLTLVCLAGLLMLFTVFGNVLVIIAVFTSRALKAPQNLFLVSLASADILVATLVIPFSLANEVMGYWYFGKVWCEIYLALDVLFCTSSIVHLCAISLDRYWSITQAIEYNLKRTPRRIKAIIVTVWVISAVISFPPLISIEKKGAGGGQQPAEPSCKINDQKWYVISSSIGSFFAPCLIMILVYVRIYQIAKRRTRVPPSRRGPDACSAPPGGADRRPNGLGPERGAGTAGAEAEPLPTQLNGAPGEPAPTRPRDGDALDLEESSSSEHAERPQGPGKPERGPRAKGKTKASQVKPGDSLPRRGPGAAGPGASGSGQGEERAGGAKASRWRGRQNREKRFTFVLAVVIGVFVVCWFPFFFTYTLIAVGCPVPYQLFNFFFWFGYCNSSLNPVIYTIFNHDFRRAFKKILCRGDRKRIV
Experimental: The central α2 -blocking effect of the compounds of the invention in vivo was studied. It is known that in the rat α2 -agonists induce dilation of the pupil (mydriasis) and that this effect is transmitted via α2 -receptors of the central nervous system. In an anaesthetized rat, a standard dose of detomidine was administered intravenously. Thereafter increasing doses of the antagonist under test were injected intravenously and the reversal of detomidine-induced mydriasis was observed. The ED50 value of the antagonist, i.e. the dose producing a 50 percent reversal, was determined.

[3] = test system: α2-receptors; settings: Virtanen et al., 1983; cited from earlier work

With `CC(C)(O)C1(c2cnc[nH]2)Cc2ccccc2C1` [Compound I, 2-[2,3-dihydro-2-[imidazol-4(5)-yl]-1H-inden-2-yl]-2-propanol] as the compound, how does the Kb [1] read?
Its Kb is 3980 nM.

Which Kb [1] does the source give for `C=C(C)C1(c2cnc[nH]2)Cc2ccccc2C1` [Compound II, 4(5)-(2,3-dihydro-2-isopropenyl-1H-inden-2-yl)imidazole] here?
The Kb was 100 nM.

With `CC(C)C1(c2cnc[nH]2)Cc2ccccc2C1` [Compound III, 4(5)-(2,3-dihydro-2-isopropyl-1H-inden-2-yl)imidazole] as the compound, how does the Kb [1] read?
The Kb was 398 nM.

For `C=CC1(c2cnc[nH]2)Cc2ccccc2C1` [Compound IV, 4(5)-(2,3-dihydro-2-vinyl-1H-inden-2-yl)imidazole], which Kb [1] is on record?
Its Kb is 25.1 nM.

Which ED50 [2] does the source give for `C=C1c2ccccc2CC1(C)c1cnc[nH]1` (stereo not shown) [Compound V, 4(5)-(2,3-dihydro-2-methyl-1-methylene-1H-inden-2-yl)-imidazole] here?
Its ED50 is 0.03 mg/kg.

Which ED50 [2] does the source give for `CC=C1c2ccccc2CC1(C)c1cnc[nH]1` (stereo not shown) [Compound VI, 4(5)-(2,3-dihydro-1-ethylidene-2-methyl-1H-inden-2-yl)-imidazole] here?
The ED50 was 0.001 mg/kg.

Which “α2-receptor stimulation responsible for primary pharmacodynamic effects, e.g. sedation (in words)” value [3] does the source give for `Cc1cccc(Cc2c[nH]cn2)c1C` [detomidine] here?
The value was “ability to stimulate α2 -receptors”.
